The results in this text go back to paper PMC9856672, “SGC-CAMKK2-1: A Chemical Probe for CAMKK2” (Cells, 2023).

The structures appear in SMILES notation.

Assay [1] has as its target T1, LATS2 (Homo sapiens, UniProt Q9NRM7).
T1 construct: purchased Eurofins DiscoverX KINOMEscan
The experiment in a line: KINOMEscan 1 μM, LATS2. In kind it is binding. The conditions noted are these: 1000 nM; Entrez LATS2; read-out: Percent Control. An excerpt:
(§1) Supplement cells-12-00287-s001.zip/File S2. KinomeScan data for the CAMKK2 probe and negative control.xlsx, sheet "SGC-CAMKK2-1" | column: Percent Control

The target in assay [2] is T2, LCK (Homo sapiens, UniProt P06239).
T2 construct: purchased Eurofins DiscoverX KINOMEscan
Put plainly: KINOMEscan 1 μM, LCK. To be noted: 1000 nM; Entrez LCK; read-out: Percent Control. In kind it is binding.
Description: as §1

The target in assay [3] is T3, CSNK1G2 (Homo sapiens, UniProt P78368).
T3 construct: purchased Eurofins DiscoverX KINOMEscan
Put plainly: KINOMEscan 1 μM, CSNK1G2. In kind it is binding. To be noted: 1000 nM; Entrez CSNK1G2; read-out: Percent Control.
Description: as §1

The target in assay [4] is T4, NIK (Homo sapiens, UniProt Q99558).
T4 construct: purchased Eurofins DiscoverX KINOMEscan
The experiment in a line: KINOMEscan 1 μM, NIK. In kind it is binding. To be noted: 1000 nM; Entrez MAP3K14; read-out: Percent Control.
Description: as §1

The target of assay [5] is T5, HIPK1 (Homo sapiens, UniProt Q86Z02).
T5 construct: purchased Eurofins DiscoverX KINOMEscan
Put plainly: KINOMEscan 1 μM, HIPK1. To be noted: 1000 nM; Entrez HIPK1; read-out: Percent Control. In kind it is binding.
Description: as §1

Assay [6] addresses T6, TAOK2 (Homo sapiens, UniProt Q9UL54).
T6 construct: purchased Eurofins DiscoverX KINOMEscan
The experiment in a line: KINOMEscan 1 μM, TAOK2. The assay is classed as binding. To be noted: 1000 nM; Entrez TAOK2; read-out: Percent Control.
Description: as §1

For assay [7], the target named is T7, CAMK1D (Homo sapiens, UniProt Q8IU85).
T7 construct: purchased Eurofins DiscoverX KINOMEscan
Put plainly: KINOMEscan 1 μM, CAMK1D. The assay is classed as binding. To be noted: 1000 nM; Entrez CAMK1D; read-out: Percent Control.
Description: as §1

Assay [8] deals with T8, HUNK (Homo sapiens, UniProt P57058).
T8 construct: purchased Eurofins DiscoverX KINOMEscan
Put plainly: KINOMEscan 1 μM, HUNK. In kind it is binding. To be noted: 1000 nM; Entrez HUNK; read-out: Percent Control.
Description: as §1

Assay [9] deals with T9, LIMK1 (Homo sapiens, UniProt P53667).
T9 construct: purchased Eurofins DiscoverX KINOMEscan
The experiment in a line: KINOMEscan 1 μM, LIMK1. In kind it is binding. To be noted: 1000 nM; Entrez LIMK1; read-out: Percent Control.
Description: as §1

The target in assay [10] is T10, ABL1(M351T)-phosphorylated (Homo sapiens, UniProt P00519, M351T).
T10 construct: purchased Eurofins DiscoverX KINOMEscan
Put plainly: KINOMEscan 1 μM, ABL1(M351T)-phosphorylated. In kind it is binding. To be noted: 1000 nM; Entrez ABL1; read-out: Percent Control.
Description: as §1

The target in assay [11] is T11, ASK1 (Homo sapiens, UniProt Q99683).
T11 construct: purchased Eurofins DiscoverX KINOMEscan
Put plainly: KINOMEscan 1 μM, ASK1. In kind it is binding. The conditions noted are these: 1000 nM; Entrez MAP3K5; read-out: Percent Control.
Description: as §1

The target in assay [12] is T12, DCAMKL3 (Homo sapiens, UniProt Q9C098).
T12 construct: purchased Eurofins DiscoverX KINOMEscan
The experiment in a line: KINOMEscan 1 μM, DCAMKL3. To be noted: 1000 nM; Entrez DCLK3; read-out: Percent Control. In kind it is binding.
Description: as §1

Assay [13] concerns the target T13, EPHA7 (Homo sapiens, UniProt Q15375).
T13 construct: purchased Eurofins DiscoverX KINOMEscan
Put plainly: KINOMEscan 1 μM, EPHA7. The assay is classed as binding. The conditions noted are these: 1000 nM; Entrez EPHA7; read-out: Percent Control.
Description: as §1

The target of assay [14] is T14, LTK (Homo sapiens, UniProt P29376).
T14 construct: purchased Eurofins DiscoverX KINOMEscan
The experiment in a line: KINOMEscan 1 μM, LTK. The assay is classed as binding. The conditions noted are these: 1000 nM; Entrez LTK; read-out: Percent Control.
Description: as §1

For assay [15], the target named is T15, MEK6 (Homo sapiens, UniProt P52564).
T15 construct: purchased Eurofins DiscoverX KINOMEscan
The experiment in a line: KINOMEscan 1 μM, MEK6. In kind it is binding. The conditions noted are these: 1000 nM; Entrez MAP2K6; read-out: Percent Control.
Description: as §1

Assay [16] has as its target T16, MYLK4 (Homo sapiens, UniProt Q86YV6).
T16 construct: purchased Eurofins DiscoverX KINOMEscan
The experiment in a line: KINOMEscan 1 μM, MYLK4. In kind it is binding. The conditions noted are these: 1000 nM; Entrez MYLK4; read-out: Percent Control.
Description: as §1

Assay [17] has as its target T17, PIP5K2B (Homo sapiens, UniProt P78356).
T17 construct: purchased Eurofins DiscoverX KINOMEscan
Put plainly: DiscoverX KINOMEscan binding assay at 1 μM, PIP5K2B. To be noted: PIP5K2B (PIP4K2B); Compound Concentration 1000 nM; read-out: Percent Control.
Description: as §1

Assay [18] has as its target T18, PRKG1 (Homo sapiens, UniProt Q13976).
T18 construct: purchased Eurofins DiscoverX KINOMEscan
Put plainly: DiscoverX KINOMEscan binding assay at 1 μM, PRKG1. To be noted: Compound Concentration 1000 nM, read-out: Percent Control.
Description: as §1

Assay [19] addresses T19, PIK3CA(H1047L) (Homo sapiens, UniProt P42336, H1047L).
T19 construct: purchased Eurofins DiscoverX KINOMEscan
The experiment in a line: KINOMEscan at 1 μM, PIK3CA(H1047L). In kind it is binding. The conditions noted are these: 1000 nM, read-out: Percent Control. The text has this:
(§2) Supplement cells-12-00287-s001.zip/File S2. KinomeScan data for the CAMKK2 probe and negative control.xlsx, sheet "SGC-CAMKK2-1N" | column: Percent Control

The target of assay [20] is T20, WNK2 (Homo sapiens, UniProt Q9Y3S1).
T20 construct: purchased Eurofins DiscoverX KINOMEscan
The experiment in a line: KINOMEscan at 1 μM, WNK2. To be noted: 1000 nM, read-out: Percent Control. In kind it is binding.
Description: as §2

In assay [21] the target is T21, CDKL2 (Homo sapiens, UniProt Q92772).
T21 construct: purchased Eurofins DiscoverX KINOMEscan
The experiment in a line: KINOMEscan at 1 μM, CDKL2. In kind it is binding. The conditions noted are these: 1000 nM, read-out: Percent Control.
Description: as §2

Assay [22] addresses T22, RIOK3 (Homo sapiens, UniProt O14730).
T22 construct: purchased Eurofins DiscoverX KINOMEscan
Put plainly: KINOMEscan at 1 μM, RIOK3. In kind it is binding. To be noted: 1000 nM, read-out: Percent Control.
Description: as §2

Assay [23] concerns the target T23, SRPK2 (Homo sapiens, UniProt P78362).
T23 construct: purchased Eurofins DiscoverX KINOMEscan
The experiment in a line: KINOMEscan at 1 μM, SRPK2. In kind it is binding. The conditions noted are these: 1000 nM, read-out: Percent Control.
Description: as §2

In assay [24] the target is T24, SGK (Homo sapiens, UniProt O00141).
T24 construct: purchased Eurofins DiscoverX KINOMEscan
The experiment in a line: KINOMEscan at 1 μM, SGK. The assay is classed as binding. To be noted: 1000 nM, read-out: Percent Control.
Description: as §2

Assay [25] has as its target T25, ACVR1 (Homo sapiens, UniProt Q04771).
T25 construct: purchased Eurofins DiscoverX KINOMEscan
Put plainly: KINOMEscan at 1 μM, ACVR1. The conditions noted are these: 1000 nM, read-out: Percent Control. In kind it is binding.
Description: as §2

Assay [26] deals with T26, PRKR (Homo sapiens, UniProt P19525).
T26 construct: purchased Eurofins DiscoverX KINOMEscan
The experiment in a line: KINOMEscan at 1 μM, PRKR. The assay is classed as binding. The conditions noted are these: 1000 nM, read-out: Percent Control.
Description: as §2

Assay [27] addresses T16, MYLK4. Put plainly: KINOMEscan at 1 μM, MYLK4. To be noted: 1000 nM, read-out: Percent Control. In kind it is binding.
Description: as §2

Assay [28] addresses T4, NIK. The experiment in a line: KINOMEscan at 1 μM, NIK. The assay is classed as binding. The conditions noted are these: 1000 nM, read-out: Percent Control.
Description: as §2

The target of assay [29] is T27, CSNK1G1 (Homo sapiens, UniProt Q9HCP0).
T27 construct: purchased Eurofins DiscoverX KINOMEscan
The experiment in a line: KINOMEscan at 1 μM, CSNK1G1. In kind it is binding. To be noted: 1000 nM, read-out: Percent Control.
Description: as §2

Assay [30] deals with T28, EPHB2 (Homo sapiens, UniProt P29323).
T28 construct: purchased Eurofins DiscoverX KINOMEscan
The experiment in a line: KINOMEscan binding assay at 1 μM, EPHB2. To be noted: Compound Concentration 1000 nM; read-out: Percent Control.
Description: as §2

For assay [31], the target named is T29, MAPKAPK2 (Homo sapiens, UniProt P49137).
T29 construct: purchased Eurofins DiscoverX KINOMEscan
Put plainly: KINOMEscan binding assay at 1 μM, MAPKAPK2. The conditions noted are these: Compound Concentration 1000 nM; read-out: Percent Control.
Description: as §2

For assay [32], the target named is T30, MAPKAPK5 (Homo sapiens, UniProt Q8IW41).
T30 construct: purchased Eurofins DiscoverX KINOMEscan
The experiment in a line: KINOMEscan binding assay at 1 μM, MAPKAPK5. The conditions noted are these: Compound Concentration 1000 nM; read-out: Percent Control.
Description: as §2

In assay [33] the target is T31, NEK9 (Homo sapiens, UniProt Q8TD19).
T31 construct: purchased Eurofins DiscoverX KINOMEscan
The experiment in a line: KINOMEscan binding assay at 1 μM, NEK9. To be noted: Compound Concentration 1000 nM; read-out: Percent Control.
Description: as §2

T4 sequence (Q99558 whole entry): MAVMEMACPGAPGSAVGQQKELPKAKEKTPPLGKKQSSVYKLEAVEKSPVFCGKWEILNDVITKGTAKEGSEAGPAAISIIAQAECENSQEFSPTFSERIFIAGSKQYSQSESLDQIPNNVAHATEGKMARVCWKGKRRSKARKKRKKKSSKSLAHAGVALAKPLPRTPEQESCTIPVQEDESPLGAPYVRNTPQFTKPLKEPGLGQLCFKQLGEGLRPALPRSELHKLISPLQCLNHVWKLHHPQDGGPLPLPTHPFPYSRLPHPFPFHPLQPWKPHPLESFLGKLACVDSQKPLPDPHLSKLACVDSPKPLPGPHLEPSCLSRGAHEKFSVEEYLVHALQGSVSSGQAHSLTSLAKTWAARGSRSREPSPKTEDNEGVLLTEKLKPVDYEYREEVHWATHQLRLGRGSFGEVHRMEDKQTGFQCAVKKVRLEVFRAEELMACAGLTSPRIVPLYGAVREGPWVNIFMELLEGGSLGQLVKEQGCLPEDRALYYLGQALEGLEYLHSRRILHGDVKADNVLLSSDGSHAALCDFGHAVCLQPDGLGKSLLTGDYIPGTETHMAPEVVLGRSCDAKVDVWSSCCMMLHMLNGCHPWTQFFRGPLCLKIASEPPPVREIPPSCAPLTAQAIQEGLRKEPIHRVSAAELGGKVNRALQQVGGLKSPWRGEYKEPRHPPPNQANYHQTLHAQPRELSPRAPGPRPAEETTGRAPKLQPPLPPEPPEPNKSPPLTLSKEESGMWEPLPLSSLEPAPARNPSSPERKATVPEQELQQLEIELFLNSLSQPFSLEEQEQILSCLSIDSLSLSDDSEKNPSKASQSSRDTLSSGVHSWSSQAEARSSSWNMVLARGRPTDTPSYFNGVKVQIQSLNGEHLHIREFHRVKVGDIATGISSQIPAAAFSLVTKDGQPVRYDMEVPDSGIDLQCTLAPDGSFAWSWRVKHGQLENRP
T16 sequence (Q86YV6 whole entry): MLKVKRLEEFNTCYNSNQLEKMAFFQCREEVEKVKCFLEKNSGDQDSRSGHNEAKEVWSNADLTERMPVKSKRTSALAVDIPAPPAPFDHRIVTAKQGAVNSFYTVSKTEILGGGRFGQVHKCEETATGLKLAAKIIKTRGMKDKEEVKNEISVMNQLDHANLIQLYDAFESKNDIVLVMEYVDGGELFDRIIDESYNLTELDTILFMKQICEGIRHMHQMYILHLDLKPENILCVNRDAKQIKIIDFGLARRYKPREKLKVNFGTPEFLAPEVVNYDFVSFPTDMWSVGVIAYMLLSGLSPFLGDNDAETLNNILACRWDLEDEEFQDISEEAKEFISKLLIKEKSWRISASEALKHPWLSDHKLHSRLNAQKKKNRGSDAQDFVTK
T22 sequence (O14730 whole entry): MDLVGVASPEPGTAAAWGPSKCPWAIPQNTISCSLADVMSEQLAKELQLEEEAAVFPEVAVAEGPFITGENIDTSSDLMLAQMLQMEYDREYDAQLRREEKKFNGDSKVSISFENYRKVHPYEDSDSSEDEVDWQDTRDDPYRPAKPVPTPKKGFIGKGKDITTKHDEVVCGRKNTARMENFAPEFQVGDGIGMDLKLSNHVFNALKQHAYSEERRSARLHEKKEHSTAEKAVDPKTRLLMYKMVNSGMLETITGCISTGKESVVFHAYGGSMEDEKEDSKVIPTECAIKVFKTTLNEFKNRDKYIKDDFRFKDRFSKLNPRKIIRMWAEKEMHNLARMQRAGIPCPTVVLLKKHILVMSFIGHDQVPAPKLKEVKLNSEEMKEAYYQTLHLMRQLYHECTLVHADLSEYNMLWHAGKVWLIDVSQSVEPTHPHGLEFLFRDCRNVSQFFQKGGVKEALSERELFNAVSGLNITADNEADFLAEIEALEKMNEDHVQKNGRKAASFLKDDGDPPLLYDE
T25 sequence (Q04771 21-509): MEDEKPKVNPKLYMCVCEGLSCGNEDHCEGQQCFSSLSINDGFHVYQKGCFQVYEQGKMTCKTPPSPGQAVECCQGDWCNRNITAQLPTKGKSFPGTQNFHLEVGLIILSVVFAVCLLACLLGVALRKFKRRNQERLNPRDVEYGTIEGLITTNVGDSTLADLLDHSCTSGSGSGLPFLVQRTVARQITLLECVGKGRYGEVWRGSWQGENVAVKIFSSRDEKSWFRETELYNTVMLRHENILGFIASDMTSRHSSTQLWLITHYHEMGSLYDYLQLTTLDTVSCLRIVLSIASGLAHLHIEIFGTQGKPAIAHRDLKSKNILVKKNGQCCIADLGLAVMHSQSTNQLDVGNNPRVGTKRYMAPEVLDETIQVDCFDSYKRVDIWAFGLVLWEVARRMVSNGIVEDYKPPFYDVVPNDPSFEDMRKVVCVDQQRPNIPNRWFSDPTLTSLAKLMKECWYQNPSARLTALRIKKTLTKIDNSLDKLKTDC
T20 sequence (Q9Y3S1 whole entry): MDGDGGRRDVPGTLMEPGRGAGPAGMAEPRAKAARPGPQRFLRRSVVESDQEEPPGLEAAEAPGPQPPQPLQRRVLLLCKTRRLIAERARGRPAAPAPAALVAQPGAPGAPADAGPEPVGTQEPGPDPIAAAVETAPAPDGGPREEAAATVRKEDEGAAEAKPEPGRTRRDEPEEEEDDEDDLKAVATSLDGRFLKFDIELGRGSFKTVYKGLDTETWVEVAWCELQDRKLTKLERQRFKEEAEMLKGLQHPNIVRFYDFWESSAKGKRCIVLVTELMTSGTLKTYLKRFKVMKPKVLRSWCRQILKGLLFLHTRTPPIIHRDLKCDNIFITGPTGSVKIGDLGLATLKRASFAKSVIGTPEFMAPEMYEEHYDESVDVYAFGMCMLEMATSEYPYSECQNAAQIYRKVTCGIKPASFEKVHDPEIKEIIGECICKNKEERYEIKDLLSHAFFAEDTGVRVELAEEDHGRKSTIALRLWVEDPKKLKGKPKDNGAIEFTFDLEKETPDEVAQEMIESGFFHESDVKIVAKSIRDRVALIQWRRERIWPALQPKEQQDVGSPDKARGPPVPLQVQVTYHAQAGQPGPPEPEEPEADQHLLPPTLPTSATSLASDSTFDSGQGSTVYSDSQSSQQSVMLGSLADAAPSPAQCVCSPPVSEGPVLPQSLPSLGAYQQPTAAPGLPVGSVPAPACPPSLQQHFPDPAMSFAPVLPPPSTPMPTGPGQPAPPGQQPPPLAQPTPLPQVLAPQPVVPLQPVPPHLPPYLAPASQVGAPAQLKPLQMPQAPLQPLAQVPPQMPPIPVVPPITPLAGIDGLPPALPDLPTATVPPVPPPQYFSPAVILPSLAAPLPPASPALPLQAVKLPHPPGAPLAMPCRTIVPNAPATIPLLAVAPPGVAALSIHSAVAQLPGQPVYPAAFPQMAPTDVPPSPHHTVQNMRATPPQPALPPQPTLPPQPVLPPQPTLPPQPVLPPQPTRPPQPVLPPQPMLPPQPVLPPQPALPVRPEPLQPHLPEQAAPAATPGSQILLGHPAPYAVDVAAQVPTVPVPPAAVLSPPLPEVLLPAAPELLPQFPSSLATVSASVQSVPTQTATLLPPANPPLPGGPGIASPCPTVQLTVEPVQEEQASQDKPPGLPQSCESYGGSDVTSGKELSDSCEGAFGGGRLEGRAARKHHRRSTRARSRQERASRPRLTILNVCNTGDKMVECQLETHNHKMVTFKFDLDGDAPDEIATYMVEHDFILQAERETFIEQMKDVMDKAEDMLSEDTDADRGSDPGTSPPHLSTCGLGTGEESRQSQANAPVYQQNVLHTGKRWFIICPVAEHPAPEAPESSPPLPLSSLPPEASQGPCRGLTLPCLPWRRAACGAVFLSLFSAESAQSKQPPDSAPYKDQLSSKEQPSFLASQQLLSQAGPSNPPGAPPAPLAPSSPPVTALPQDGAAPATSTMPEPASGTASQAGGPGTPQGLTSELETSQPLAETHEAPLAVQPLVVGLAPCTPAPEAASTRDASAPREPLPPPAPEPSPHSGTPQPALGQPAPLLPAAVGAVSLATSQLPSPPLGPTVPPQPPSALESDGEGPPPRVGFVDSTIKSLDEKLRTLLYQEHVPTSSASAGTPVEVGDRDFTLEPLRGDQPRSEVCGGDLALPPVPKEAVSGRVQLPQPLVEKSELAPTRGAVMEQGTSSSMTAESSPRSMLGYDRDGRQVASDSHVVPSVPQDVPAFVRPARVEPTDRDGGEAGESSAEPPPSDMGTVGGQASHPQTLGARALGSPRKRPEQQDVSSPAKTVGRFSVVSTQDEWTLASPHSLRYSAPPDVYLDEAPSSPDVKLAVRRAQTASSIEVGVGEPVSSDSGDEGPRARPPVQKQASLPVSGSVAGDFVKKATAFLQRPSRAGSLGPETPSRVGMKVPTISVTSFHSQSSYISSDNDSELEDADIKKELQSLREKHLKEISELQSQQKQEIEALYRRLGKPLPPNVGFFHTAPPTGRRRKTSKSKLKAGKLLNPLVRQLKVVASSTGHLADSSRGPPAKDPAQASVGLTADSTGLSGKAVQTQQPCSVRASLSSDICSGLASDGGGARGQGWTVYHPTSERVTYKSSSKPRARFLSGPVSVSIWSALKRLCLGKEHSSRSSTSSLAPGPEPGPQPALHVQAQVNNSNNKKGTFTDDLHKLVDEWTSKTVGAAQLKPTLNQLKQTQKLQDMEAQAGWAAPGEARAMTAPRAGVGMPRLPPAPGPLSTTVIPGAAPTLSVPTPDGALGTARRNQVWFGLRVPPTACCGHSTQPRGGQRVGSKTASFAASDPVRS
T17 sequence (P78356 whole entry): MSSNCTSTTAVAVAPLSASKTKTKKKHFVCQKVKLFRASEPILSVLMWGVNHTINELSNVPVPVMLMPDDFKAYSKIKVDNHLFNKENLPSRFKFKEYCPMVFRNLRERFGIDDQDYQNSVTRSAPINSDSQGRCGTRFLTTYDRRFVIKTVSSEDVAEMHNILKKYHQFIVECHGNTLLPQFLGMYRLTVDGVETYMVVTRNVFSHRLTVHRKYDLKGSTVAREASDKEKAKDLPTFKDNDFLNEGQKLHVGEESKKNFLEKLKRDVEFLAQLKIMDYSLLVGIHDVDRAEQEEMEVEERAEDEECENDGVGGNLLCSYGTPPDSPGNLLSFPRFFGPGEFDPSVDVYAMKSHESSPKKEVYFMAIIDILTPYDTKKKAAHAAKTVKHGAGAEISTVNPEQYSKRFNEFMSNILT

As for `Cc1cccc(-c2cnc3occ(-c4ccc(C(=O)O)c(C5CCCC5)c4)c3c2)c1` [SGC-CAMKK2-1 (YL-36)], the remaining binding at 1 µM in assay [1] was found to be 72%; in [2] it was 86%; in assay [3] it was 88%; in assay [4], 89%; in [5] it was 90%; in assay [6], 90%. The remaining binding at 1 µM came out at 94% in assay [7]; 94% in assay [8]; 99% in [9]; 100% in assay [10]; 100% in [11]; 100% in assay [12]. Further, the remaining binding at 1 µM in [13], in assay [14], in assay [15], in assay [16], in [17] and in assay [18] was 100% each time.
As for `O=C(O)c1ccc(-c2coc3ncc(-c4ccccc4)cc23)cc1Cl` [SGC-CAMKK2-1N (UNC-YL-83)], the remaining binding at 1 µM amounted to 53% in [19]; 58% in assay [20]; 74% in assay [21]; 76% in [22]; 76% in assay [23]; 79% in assay [24]. Further, the remaining binding at 1 µM in assay [25] was found to be 85%; in assay [26], 90%; in assay [27], 91%; in assay [28], 94%; in assay [29] it was 95%; in assay [30] it was 100%. In addition, the remaining binding at 1 µM in [31], in assay [32] and in [33] was 100% throughout.
